Where a SMILES comes first, the peptide text is derived from it. [ ]: non-standard residue; d: D form. The star is where a group is joined. Decanoyl = CCCCCCCCCC(=O)*; Ac6c = NC1(C(=O)O)CCCCC1; Orn = NCCC[C@H](N)C(=O)O; X1 = CCCN1C(=O)CC(*)C1=O; Hexanoyl = CCCCCC(=O)*
How the values were obtained:
[1] = Human plasma half-life assay (LC-MS); type: in vitro ADME; conditions: incubated at 37° C., read-out: Human Plasma T½ (converted)
Method in brief: (§1)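 Aliquots taken from human or rat plasma at time points up to 72 h, quenched with formic acid and acetonitrile, centrifuged. Supernatant analyzed by LC-MS (ESI, positive ion, full scan) on a C8 column with a water/acetonitrile 1% formic acid gradient.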

[2] = Rat plasma half-life assay (LC-MS); type: in vitro ADME; conditions: incubated at 37° C., read-out: Rat Plasma T½ (converted)
Method in brief: as §1

## CCCCCCCCCC(=O)NCCC[C@H](NC(=O)[C@H](CCCCN)NC(=O)[C@H](CCC(N)=O)NC(=O)[C@H](C)NC(=O)[C@H](CC(C)C)NC(=O)[C@H](CC(C)C)NC(=O)[C@H](Cc1c[nH]c2ccccc12)NC(=O)[C@H](CC(N)=O)NC(=O)[C@@H](NC(=O)[C@H](Cc1ccccc1)NC(=O)[C@H](CC(=O)O)NC(=O)[C@H](CCC(N)=O)NC(=O)[C@H](CCC(N)=O)NC(=O)[C@H](Cc1c[nH]cn1)NC(=O)[C@@H](NC(=O)[C@H](CCCCN)NC(=O)[C@H](CC(=O)O)NC(=O)[C@H](CCSC)NC(=O)[C@H](C)NC(=O)[C@@H](NC(=O)[C@H](CO)NC(=O)[C@H](Cc1ccc(O)cc1)NC(=O)[C@H](CC(=O)O)NC(=O)[C@@H](N)CO)[C@@H](C)CC)[C@@H](C)CC)C(C)C)C(=O)N[C@@H](CCCCN)C(=O)N[C@@H](CCCCN)C(=O)N[C@@H](CC(N)=O)C(=O)N[C@@H](CC(=O)O)C(=O)N[C@@H](Cc1c[nH]c2ccccc12)C(=O)N[C@@H](CCCCN)C(=O)N[C@@H](Cc1c[nH]cn1)C(=O)N[C@@H](CC(N)=O)C(=O)N[C@H](C(=O)N[C@H](C(=O)N[C@@H](CCC(N)=O)C(=O)O)[C@@H](C)O)[C@@H](C)CC [Example 39, [Orn^31(N-C(O)-(CH2)8-CH3)]hGIP(8-42)-OH] (H-SDYSIAMDKIHQQDFVNWLLAQK[Orn](Decanoyl)KKNDWKHNITQ-OH)
[1]
  half-life at 0.1 mg/ml: 1870 min
[2]
  half-life at 0.1 mg/ml: 822 min

## CCCN1C(=O)CC(SC[C@H](NC(=O)[C@H](CCCCN)NC(=O)[C@H](Cc2c[nH]c3ccccc23)NC(=O)[C@H](CC(=O)O)NC(=O)[C@H](CC(N)=O)NC(=O)[C@H](CCCCN)NC(=O)[C@H](CCCCN)NC(=O)CNC(=O)[C@H](CCCCN)NC(=O)[C@H](CCC(N)=O)NC(=O)[C@H](C)NC(=O)[C@H](CC(C)C)NC(=O)[C@H](CC(C)C)NC(=O)[C@H](Cc2c[nH]c3ccccc23)NC(=O)[C@H](CC(N)=O)NC(=O)[C@@H](NC(=O)[C@H](Cc2ccccc2)NC(=O)[C@H](CC(=O)O)NC(=O)[C@H](CCC(N)=O)NC(=O)[C@H](CCC(N)=O)NC(=O)[C@H](Cc2c[nH]cn2)NC(=O)[C@@H](NC(=O)[C@H](CCCCN)NC(=O)[C@H](CC(=O)O)NC(=O)[C@H](CCSC)NC(=O)[C@H](C)NC(=O)[C@@H](NC(=O)[C@H](CO)NC(=O)[C@H](Cc2ccc(O)cc2)NC(=O)[C@H](CC(=O)O)NC(=O)[C@H](CO)NC(=O)C2(NC(C)=O)CCCCC2)[C@@H](C)CC)[C@@H](C)CC)C(C)C)C(=O)N[C@@H](CC(N)=O)C(=O)N[C@H](C(=O)N[C@H](C(=O)N[C@@H](CCC(N)=O)C(=O)O)[C@@H](C)O)[C@@H](C)CC)C1=O (some centres unmarked) [Example 4, [Ac-A6c^7, Cys(Psu)^38]hGIP(7-42)-OH] (Ac-[Ac6c]SDYSIAMDKIHQQDFVNWLLAQKGKKNDWKC(X1)NITQ-OH)
[1]
  half-life at 0.1 mg/mL: 600 min
[2]
  half-life at 0.1 mg/mL: 360 min

## CCCCCCCCCC(=O)NCCC[C@H](NC(=O)[C@H](CCCCN)NC(=O)[C@H](CCCCN)NC(=O)CNC(=O)[C@H](CCCCN)NC(=O)[C@H](CCC(N)=O)NC(=O)[C@H](C)NC(=O)[C@H](CC(C)C)NC(=O)[C@H](CC(C)C)NC(=O)[C@H](Cc1c[nH]c2ccccc12)NC(=O)[C@H](CC(N)=O)NC(=O)[C@@H](NC(=O)[C@H](Cc1ccccc1)NC(=O)[C@H](CC(=O)O)NC(=O)[C@H](CCC(N)=O)NC(=O)[C@H](CCC(N)=O)NC(=O)[C@H](Cc1c[nH]cn1)NC(=O)[C@@H](NC(=O)[C@H](CCCCN)NC(=O)[C@H](CC(=O)O)NC(=O)[C@H](CCSC)NC(=O)[C@H](C)NC(=O)[C@@H](NC(=O)[C@H](CO)NC(=O)[C@H](Cc1ccc(O)cc1)NC(=O)[C@H](CC(=O)O)NC(=O)[C@H](CO)NC(=O)C1(N)CCCCC1)[C@@H](C)CC)[C@@H](C)CC)C(C)C)C(=O)N[C@@H](CC(=O)O)C(=O)N[C@@H](Cc1c[nH]c2ccccc12)C(=O)N[C@@H](CCCCN)C(=O)N[C@@H](Cc1c[nH]cn1)C(=O)N[C@@H](CC(N)=O)C(=O)N[C@H](C(=O)N[C@H](C(=O)N[C@@H](CCC(N)=O)C(=O)O)[C@@H](C)O)[C@@H](C)CC [Example 20, [A6c^7, Orn^34(N-C(O)-(CH2)8-CH3)]hGIP(7-42)-OH] (H-[Ac6c]SDYSIAMDKIHQQDFVNWLLAQKGKK[Orn](Decanoyl)DWKHNITQ-OH)
[1]
  half-life at 0.1 mg/mL: 564 min
[2]
  half-life at 0.1 mg/mL: 834 min

## CC[C@H](C)[C@H](NC(=O)[C@H](CO)NC(=O)[C@H](Cc1ccc(O)cc1)NC(=O)[C@H](CC(=O)O)NC(=O)[C@H](CO)NC(=O)C1(NC(=O)[C@H](Cc2ccccc2)NC(C)=O)CCCCC1)C(=O)N[C@@H](C)C(=O)N[C@@H](CCSC)C(=O)N[C@@H](CC(=O)O)C(=O)N[C@@H](CCCCN)C(=O)N[C@H](C(=O)N[C@@H](Cc1c[nH]cn1)C(=O)N[C@@H](CCC(N)=O)C(=O)N[C@@H](CCC(N)=O)C(=O)N[C@@H](CC(=O)O)C(=O)N[C@@H](Cc1ccccc1)C(=O)N[C@H](C(=O)N[C@@H](CC(N)=O)C(=O)N[C@@H](Cc1c[nH]c2ccccc12)C(=O)N[C@@H](CC(C)C)C(=O)N[C@@H](CC(C)C)C(=O)N[C@@H](C)C(=O)N[C@@H](CCC(N)=O)C(=O)N[C@@H](CCCCN)C(N)=O)C(C)C)[C@@H](C)CC [Example 32, (Ac-Phe^6, A6c^7)hGIP(6-30)-NH2]
[1]
  half-life at 0.1 mg/mL: 1450 min
[2]
  half-life at 0.1 mg/mL: 3620 min

## CCCCCC(=O)NCCC[C@H](NC(=O)[C@H](CCCCN)NC(=O)[C@H](CCC(N)=O)NC(=O)[C@H](C)NC(=O)[C@H](CC(C)C)NC(=O)[C@H](CC(C)C)NC(=O)[C@H](Cc1c[nH]c2ccccc12)NC(=O)[C@H](CC(N)=O)NC(=O)[C@@H](NC(=O)[C@H](Cc1ccccc1)NC(=O)[C@H](CC(=O)O)NC(=O)[C@H](CCC(N)=O)NC(=O)[C@H](CCC(N)=O)NC(=O)[C@H](Cc1c[nH]cn1)NC(=O)[C@@H](NC(=O)[C@H](CCCCN)NC(=O)[C@H](CC(=O)O)NC(=O)[C@H](CCSC)NC(=O)[C@H](C)NC(=O)[C@@H](NC(=O)[C@H](CO)NC(=O)[C@H](Cc1ccc(O)cc1)NC(=O)[C@H](CC(=O)O)NC(=O)[C@H](CO)NC(=O)C1(NC(C)=O)CCCCC1)[C@@H](C)CC)[C@@H](C)CC)C(C)C)C(=O)N[C@@H](CCCCN)C(=O)N[C@@H](CCCCN)C(=O)N[C@@H](CC(N)=O)C(=O)N[C@@H](CC(=O)O)C(=O)N[C@@H](Cc1c[nH]c2ccccc12)C(=O)N[C@@H](CCCCN)C(=O)N[C@@H](Cc1c[nH]cn1)C(=O)N[C@@H](CC(N)=O)C(=O)N[C@H](C(=O)N[C@H](C(=O)N[C@@H](CCC(N)=O)C(=O)O)[C@@H](C)O)[C@@H](C)CC [Example 16, [Ac-A6c^7, Orn^31(N-C(O)-(CH2)4-CH3)]hGIP(7-42)-OH] (Ac-[Ac6c]SDYSIAMDKIHQQDFVNWLLAQK[Orn](Hexanoyl)KKNDWKHNITQ-OH)
[1]
  half-life at 0.1 mg/ml: > 3000 min
[2]
  half-life at 0.1 mg/ml: 1800 min

## CCCCCCCCCC(=O)NCCC[C@H](NC(=O)[C@H](CCCCN)NC(=O)[C@H](CCC(N)=O)NC(=O)[C@H](C)NC(=O)[C@H](CC(C)C)NC(=O)[C@H](CC(C)C)NC(=O)[C@H](Cc1c[nH]c2ccccc12)NC(=O)[C@H](CC(N)=O)NC(=O)[C@@H](NC(=O)[C@H](Cc1ccccc1)NC(=O)[C@H](CC(=O)O)NC(=O)[C@H](CCC(N)=O)NC(=O)[C@H](CCC(N)=O)NC(=O)[C@H](Cc1c[nH]cn1)NC(=O)[C@@H](NC(=O)[C@H](CCCCN)NC(=O)[C@H](CC(=O)O)NC(=O)[C@H](CCSC)NC(=O)[C@H](C)NC(=O)[C@@H](NC(=O)[C@H](CO)NC(=O)[C@H](Cc1ccc(O)cc1)NC(=O)[C@H](CC(=O)O)NC(=O)[C@H](CO)NC(=O)C1(NC(=O)CCCCCCCCC)CCCCC1)[C@@H](C)CC)[C@@H](C)CC)C(C)C)C(=O)N[C@@H](CCCCN)C(=O)N[C@@H](CCCCN)C(=O)N[C@@H](CC(N)=O)C(=O)N[C@@H](CC(=O)O)C(=O)N[C@@H](Cc1c[nH]c2ccccc12)C(=O)N[C@@H](CCCCN)C(=O)N[C@@H](Cc1c[nH]cn1)C(=O)N[C@@H](CC(N)=O)C(=O)N[C@H](C(=O)N[C@H](C(=O)N[C@@H](CCC(N)=O)C(=O)O)[C@@H](C)O)[C@@H](C)CC [Example 15, [CH3-(CH2)8-C(O)-A6c^7, Orn^31(N-C(O)-(CH2)8-CH3)]hGIP(7-42)-OH] (Decanoyl-[Ac6c]SDYSIAMDKIHQQDFVNWLLAQK[Orn](Decanoyl)KKNDWKHNITQ-OH)
[1]
  half-life at 0.1 mg/ml: 312 min
[2]
  half-life at 0.1 mg/ml: > 4320 min

## CCCN1C(=O)CC(SC[C@H](NC(=O)[C@H](CCCCN)NC(=O)[C@H](CCC(N)=O)NC(=O)[C@H](C)NC(=O)[C@H](CC(C)C)NC(=O)[C@H](CC(C)C)NC(=O)[C@H](Cc2c[nH]c3ccccc23)NC(=O)[C@H](CC(N)=O)NC(=O)[C@@H](NC(=O)[C@H](Cc2ccccc2)NC(=O)[C@H](CC(=O)O)NC(=O)[C@H](CCC(N)=O)NC(=O)[C@H](CCC(N)=O)NC(=O)[C@H](Cc2c[nH]cn2)NC(=O)[C@@H](NC(=O)[C@H](CCCCN)NC(=O)[C@H](CC(=O)O)NC(=O)[C@H](CCSC)NC(=O)[C@H](C)NC(=O)[C@@H](NC(=O)[C@H](CO)NC(=O)[C@H](Cc2ccc(O)cc2)NC(=O)[C@H](CC(=O)O)NC(=O)[C@H](CO)NC(=O)C2(NC(=O)[C@@H](N)Cc3ccccc3)CCCCC2)[C@@H](C)CC)[C@@H](C)CC)C(C)C)C(=O)N[C@@H](CCCCN)C(=O)N[C@@H](CCCCN)C(=O)N[C@@H](CC(N)=O)C(=O)N[C@@H](CC(=O)O)C(=O)N[C@@H](Cc2c[nH]c3ccccc23)C(=O)N[C@@H](CCCCN)C(=O)N[C@@H](Cc2c[nH]cn2)C(=O)N[C@@H](CC(N)=O)C(=O)N[C@H](C(=O)N[C@H](C(=O)N[C@@H](CCC(N)=O)C(=O)O)[C@@H](C)O)[C@@H](C)CC)C1=O (some centres unmarked) [Example 31, [A6c^7, Cys(Psu)^31]hGIP(6-42)-OH] (H-F[Ac6c]SDYSIAMDKIHQQDFVNWLLAQKC(X1)KKNDWKHNITQ-OH)
[1]
  half-life at 0.1 mg/mL: 264 min
[2]
  half-life at 0.1 mg/mL: 306 min

From patent publication US8450266B2 (Ipsen Pharma S.A.S., priority 2008, dated 2013)
